Results on six molecules are retold here after article PMC6627849, “Distant Non-Obvious Mutations Influence the Activity of a Hyperthermophilic Pyrococcus furiosus Phosphoglucose Isomerase” (Biomolecules, 2019).

In data set [1] the target is T1, PfPGI (cupin-type phosphoglucose isomerase) (Pyrococcus furiosus, UniProt P83194, P132R/Y133G).
T1 construct: gene pgiA; pgiA in pET24d, expressed in E. coli, heat treatment plus Q-Sepharose and Superdex 200
Nature of the data set: X-ray crystal structure. The following applies: Mn2+ in active site; 5PAA formed from F6P in the crystallization solution; pH 5.5. The class given is binding.

The target of data set [2] is T2, PfPGI (cupin-type phosphoglucose isomerase) (Pyrococcus furiosus, UniProt P83194, P132A/Y133G).
T2 construct: gene pgiA; pgiA in pET24d, expressed in E. coli, heat treatment plus Q-Sepharose and Superdex 200
Nature of the data set: EPR of Mn2+ coordination on adding F6P. Type of data set: binding. The following applies: 10 mM F6P, 0.2 mM MnCl2, pH 8.0; spectra at 13 K.

For data set [3], the target named is T1, PfPGI (cupin-type phosphoglucose isomerase). Description: EPR of Mn2+ coordination on adding F6P. Type of data set: binding. The following applies: 10 mM F6P, 0.2 mM MnCl2, pH 8.0; spectra at 13 K.
Data set [4] addresses T3, PfPGI (cupin-type phosphoglucose isomerase) (Pyrococcus furiosus, UniProt P83194, P132A/Y133D).
T3 construct: gene pgiA; pgiA in pET24d, expressed in E. coli, heat treatment plus Q-Sepharose and Superdex 200
Nature of the data set: EPR of Mn2+ coordination on adding F6P. Type of data set: binding. The following applies: 10 mM F6P, 0.2 mM MnCl2, pH 8.0; spectra at 13 K; F6P not seen in the crystal structure.

Data set [5] concerns the molecule itself. Description: crystal structure; PfPGI mutants at 11.5 mg/mL in 10 mM Tris/HCl pH 8.0, 50 mM F6P, 5 mM MnCl2; molecular replacement with wild-type PfPGI (PDB 1X82); RG, AD and VY with chains A and B, AG with the two subunits related by crystal symmetry.

Substitutions are numbered along the chain they refer to. Names and notes keep the numbering of the source.

T3 sequence (P83194 whole entry P132A/Y133D): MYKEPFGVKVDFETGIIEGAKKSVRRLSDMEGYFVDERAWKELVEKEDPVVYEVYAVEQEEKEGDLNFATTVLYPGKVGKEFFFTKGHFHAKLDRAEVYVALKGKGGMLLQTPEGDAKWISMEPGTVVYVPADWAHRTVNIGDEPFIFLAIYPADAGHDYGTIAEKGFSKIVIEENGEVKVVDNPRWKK
T2 sequence (P83194 whole entry P132A/Y133G): as the sequence (P83194 whole entry P132A/Y133D) above, with D133G counted along it

In the case of `O=C(O)[C@@H](O)[C@H](O)[C@H](O)COP(=O)(O)O` [5PAA, 5-phosphoarabinonic acid], the X-ray crystal structure in data set [1] was 5-phosphoarabinonic acid (5PAA), rather than F6P (as added to the crystallization mixture) was bound.
For the molecule `O=P(O)(O)OC[C@H]1OC(O)(CO)[C@@H](O)[C@@H]1O` (some centres unmarked) [F6P, fructose-6-phosphate], the “EPR of Mn2+ coordination on adding F6P” value in data set [2], in data set [3] and in data set [4] was “addition of F6P to any of the manganese-containing PfPGI mutants lead to a collapse” each time.

B1: PfPGI mutant P132R/Y133G (cupin-type phosphoglucose isomerase of Pyrococcus furiosus) (enzyme)
chain: MYKEPFGVKVDFETGIIEGAKKSVRRLSDMEGYFVDERAWKELVEKEDPVVYEVYAVEQEEKEGDLNFATTVLYPGKVGKEFFFTKGHFHAKLDRAEVYVALKGKGGMLLQTPEGDAKWISMEPGTVVYVPRGWAHRTVNIGDEPFIFLAIYPADAGHDYGTIAEKGFSKIVIEENGEVKVVDNPRWKK
notes: cupin-type phosphoglucose isomerase (PfPGI, EC 5.3.1.9), gene pgiA, Pyrococcus furiosus; monomeric subunit 21.5 kDa; the models have no missing residues, residues up to Lys189 are named; Crystallised with MnCl2 and F6P; 5PAA found in the active site; also called RG; mutant RG; source: E. coli (pET24d), overexpressed and purified as described previously [32]
Take B1: the binding result in data set [5] is “binds”.

B2: PfPGI mutant P132A/Y133D (cupin-type phosphoglucose isomerase of Pyrococcus furiosus) (enzyme)
chain: B1 chain with R132A, G133D
notes: cupin-type phosphoglucose isomerase (PfPGI, EC 5.3.1.9), gene pgiA, Pyrococcus furiosus; monomeric subunit 21.5 kDa; the models have no missing residues, residues up to Lys189 are named; Structure holds only Mn2+ in the active site; also called AD; mutant AD; source: E. coli (pET24d), overexpressed and purified as described previously [32]
Turning to B2, the binding result in data set [5] is on record as “binds”.

B3: PfPGI mutant P132A/Y133G (cupin-type phosphoglucose isomerase of Pyrococcus furiosus) (enzyme)
chain: B1 chain with R132A
notes: cupin-type phosphoglucose isomerase (PfPGI, EC 5.3.1.9), gene pgiA, Pyrococcus furiosus; monomeric subunit 21.5 kDa; the models have no missing residues, residues up to Lys189 are named; Crystallised with MnCl2 and F6P; 5PAA found in the active site; The two subunits of the dimer are related by crystal symmetry; also called AG; mutant AG; source: E. coli (pET24d), overexpressed and purified as …
For B3, in data set [5], the binding result is on record as “binds”.

B4: PfPGI mutant P132V (cupin-type phosphoglucose isomerase of Pyrococcus furiosus) (enzyme)
chain: B1 chain with R132V, G133Y
notes: cupin-type phosphoglucose isomerase (PfPGI, EC 5.3.1.9), gene pgiA, Pyrococcus furiosus; monomeric subunit 21.5 kDa; the models have no missing residues, residues up to Lys189 are named; Crystals grown with MnCl2 and soaked with F6P; also called VY; mutant VY; source: E. coli (pET24d), overexpressed and purified as described previously [32]
Turning to B4, the binding result in data set [5] is “binds”.
